Test results as given in BindingDB's records for doi:10.7270/Q2CZ35ND (Burnham Center For Chemical Genomics, 2011).

Biological target: DNA dC->dU-editing enzyme APOBEC-3A (Homo sapiens, UniProt P31941)
Assay: A3A deaminase inhibition for selectivity – biochemical, dose response (AID 504722)
Conditions: 25 °C

DNA dC->dU-editing enzyme APOBEC-3A, sequence (P31941 whole entry): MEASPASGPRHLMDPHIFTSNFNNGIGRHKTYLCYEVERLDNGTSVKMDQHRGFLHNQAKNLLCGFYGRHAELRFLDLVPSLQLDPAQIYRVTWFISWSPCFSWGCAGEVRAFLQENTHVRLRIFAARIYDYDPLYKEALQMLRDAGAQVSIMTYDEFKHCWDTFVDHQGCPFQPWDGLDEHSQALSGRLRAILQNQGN

| SMILES | IC50 |
| --- | --- |
| COc1ccc(-n2c(O)cc(Sc3nnc(-c4ccccc4)[nH]3)c2O)cc1 [1-(4-methoxyphenyl)-3-[(5-phenyl-1H-1,2,4-triazol-3-yl)thio]pyrrolidine-2,5-dione] | > 100 µM |
| OCC12C=CC(O1)c1c2c(O)n(-c2ccccc2-c2ccccc2)c1O (stereo not drawn) [7-(hydroxymethyl)-2-(2-phenylphenyl)-4,7a-dihydro-3aH-octahydro-1H-4,7-epoxyisoindole-1,3-dione] | > 100 µM |
| CCOc1ccc(-n2c(O)cc(Sc3nnc(-c4ccccc4)[nH]3)c2O)cc1 [MLS000765380] | > 100 µM |
